In patent publication US4178442A, “Novel cinnamoyles piperazines and homopiperazines, the method of preparing them and their application in therapeutics” (Delalande S. A., priority 1977, dated 1979):
Where two headings read alike, the source gives them in different places.

What was measured:
[1] = in vivo; settings: iv; for LD50: read-out: Toxicity: LD50; for mortality: read-out: Toxicity (Mortality)
Excerpt: *LD50 or percentage of mortality which is given between brackets

[2] = system: anaesthetized dog; experiment: Antiangorous activity on anaesthetized dog: consumption of oxygen in the left ventricule and cardiac effort (KATZ's index); assay type: in vivo; settings: for inhibition in vivo at 2.5 mg/kg / inhibition in vivo at 2.2 mg/kg / inhibition in vivo at 4.5 mg/kg / inhibition in vivo at 2.1 mg/kg / inhibition in vivo at 2.3 mg/kg / inhibition in vivo at 4.6 mg/kg: Canis lupus familiaris, iv
Experimental: The antiangorous activity was tested on an anaesthetized dog (sodium pentobarbital 30 mg/kg/i.v.).
The consumption of oxygen in the left ventricule was estimated by the product of the coronary venous flow and the coronary arteriovenous difference in oxygen (% volume).
The coronary venous flow was measured at the coronary venous sinus by means of a modified Morawitz cannula, introduced under radioscopic control.
The cardiac effort was estimated according to KATZ's index, by the product of the average arterial pressure and the cardiac frequency.
The cardiac frequency was estimated from the electrocardiogram recorded with D2 derivation.
It should be noted that the compounds tested were injected intravenously with slow perfusion.

[3] = 2.5 mg/kg i.v. slow perfusion, read-out: Diminution in consumption of O2
[4] = 2.5 mg/kg i.v. slow perfusion, read-out: Diminution in the cardiac effort (IK)
[5] = 2.3 mg/kg i.v. slow perfusion, read-out: Diminution in consumption of O2
[6] = 2.3 mg/kg i.v. slow perfusion, read-out: Diminution in the cardiac effort (IK)

CCOC(=O)c1ccc(OCC(O)CN2CCN(C(=O)/C=C/c3cc(OC)c(OC)c(OC)c3)CC2)cc1 (stereo not drawn) [760 382]
LD50 [1]: 260 mg/kg
Diminution in consumption of O2: in time ([2]; 2.5 mg/kg i.v. slow perfusion): 30 min
Diminution in the cardiac effort (IK): in time ([2]; 2.5 mg/kg i.v. slow perfusion): 30 min
inhibition in vivo at 2.5 mg/kg [2, 3]: 40%
inhibition in vivo at 2.5 mg/kg [2, 4]: 24%

COc1cc(/C=C/C(=O)N2CCN(CC(O)COc3ccc(C(C)=O)cc3)CC2)cc(OC)c1OC (stereo not drawn) [760 385]
mortality ([1]; 351 mg/kg i.v.): 10%
Diminution in consumption of O2: in time ([2]; 2.2 mg/kg i.v. slow perfusion): 15 min
Diminution in the cardiac effort (IK): in time ([2]; 2.2 mg/kg i.v. slow perfusion): 15 min
inhibition in vivo at 2.2 mg/kg ([2]; 2.2 mg/kg i.v. slow perfusion, read-out: Diminution in consumption of O2): 65%
inhibition in vivo at 2.2 mg/kg ([2]; 2.2 mg/kg i.v. slow perfusion, read-out: Diminution in the cardiac effort (IK)): 16%

COc1cc(/C=C/C(=O)N2CCN(CC(O)COc3ccccc3C#N)CC2)cc(OC)c1OC (stereo not drawn) [760 389]
LD50 [1]: 245 mg/kg
Diminution in consumption of O2: in time ([2]; 4.5 mg/kg i.v. slow perfusion): 60 min
Diminution in the cardiac effort (IK): in time ([2]; 4.5 mg/kg i.v. slow perfusion): 60 min
inhibition in vivo at 4.5 mg/kg ([2]; 4.5 mg/kg i.v. slow perfusion, read-out: Diminution in consumption of O2): 70%
inhibition in vivo at 4.5 mg/kg ([2]; 4.5 mg/kg i.v. slow perfusion, read-out: Diminution in the cardiac effort (IK)): 55%

COc1cc(/C=C/C(=O)N2CCN(CC(O)COc3ccc(C(C)=O)c4c3OCCO4)CC2)cc(OC)c1OC (stereo not drawn) [760 394]
LD50 [1]: 214 mg/kg
Diminution in consumption of O2: in time ([2]; 2.1 mg/kg i.v. slow perfusion): 60 min
Diminution in the cardiac effort (IK): in time ([2]; 2.1 mg/kg i.v. slow perfusion): 45 min
inhibition in vivo at 2.1 mg/kg ([2]; 2.1 mg/kg i.v. slow perfusion, read-out: Diminution in consumption of O2): 60%
inhibition in vivo at 2.1 mg/kg ([2]; 2.1 mg/kg i.v. slow perfusion, read-out: Diminution in the cardiac effort (IK)): 46%

COc1cc(/C=C/C(=O)N2CCN(CC(O)COc3ccc(Cl)cc3)CC2)cc(OC)c1OC (stereo not drawn) [760 476]
LD50 [1]: 185 mg/kg
Diminution in consumption of O2: in time ([2]; 2.3 mg/kg i.v. slow perfusion): 23 min
Diminution in the cardiac effort (IK): in time ([2]; 2.3 mg/kg i.v. slow perfusion): 15 min
inhibition in vivo at 2.3 mg/kg [2, 5]: 70%
inhibition in vivo at 2.3 mg/kg [2, 6]: 5%

COc1cc(/C=C/C(=O)N2CCN(CC(O)COc3cc(OC)c(OC)c(OC)c3)CC2)cc(OC)c1OC (stereo not drawn) [760 506]
LD50 [1]: 182 mg/kg
Diminution in consumption of O2: in time ([2]; 2.3 mg/kg i.v. slow perfusion): 60 min
Diminution in the cardiac effort (IK): in time ([2]; 2.3 mg/kg i.v. slow perfusion): 60 min
inhibition in vivo at 2.3 mg/kg [2, 5]: 67%
inhibition in vivo at 2.3 mg/kg [2, 6]: 26%

COc1cc(/C=C/C(=O)N2CCN(CC(O)COc3ccc(SC)cc3)CC2)cc(OC)c1OC (stereo not drawn) [760 507]
LD50 [1]: 185 mg/kg
Diminution in consumption of O2: in time ([2]; 4.6 mg/kg i.v. slow perfusion): 60 min
Diminution in the cardiac effort (IK): in time ([2]; 4.6 mg/kg i.v. slow perfusion): 30 min
inhibition in vivo at 4.6 mg/kg ([2]; 4.6 mg/kg i.v. slow perfusion, read-out: Diminution in consumption of O2): 68%
inhibition in vivo at 4.6 mg/kg ([2]; 4.6 mg/kg i.v. slow perfusion, read-out: Diminution in the cardiac effort (IK)): 32%

COc1cc(/C=C/C(=O)N2CCN(CC(O)COc3cccc4c3OCCO4)CC2)cc(OC)c1OC (stereo not drawn) [760 519]
LD50 [1]: 218 mg/kg
Diminution in consumption of O2: in time ([2]; 2.5 mg/kg i.v. slow perfusion): 15 min
Diminution in the cardiac effort (IK): in time ([2]; 2.5 mg/kg i.v. slow perfusion): 15 min
inhibition in vivo at 2.5 mg/kg [2, 3]: 51%
inhibition in vivo at 2.5 mg/kg [2, 4]: 11%

COc1cc(/C=C/C(=O)N2CCN(CC(O)COc3ccccc3Cl)CC2)cc(OC)c1OC (stereo not drawn) [760 520]
LD50 [1]: 157 mg/kg
Diminution in consumption of O2: in time ([2]; 2.3 mg/kg i.v. slow perfusion): 40 min
Diminution in the cardiac effort (IK): in time ([2]; 2.3 mg/kg i.v. slow perfusion): 30 min
inhibition in vivo at 2.3 mg/kg [2, 5]: 45%
inhibition in vivo at 2.3 mg/kg [2, 6]: 13%

COc1cc(/C=C/C(=O)N2CCN(CC(O)COc3ccc4c(c3)OCO4)CC2)cc(OC)c1OC (stereo not drawn) [760 529]
LD50 [1]: 115 mg/kg
Diminution in consumption of O2: in time ([2]; 2.3 mg/kg i.v. slow perfusion): 30 min
Diminution in the cardiac effort (IK): in time ([2]; 2.3 mg/kg i.v. slow perfusion): 15 min
inhibition in vivo at 2.3 mg/kg [2, 5]: 53%
inhibition in vivo at 2.3 mg/kg [2, 6]: 19%

COc1cc(/C=C/C(=O)N2CCN(CC(O)COc3ccc([N+](=O)[O-])cc3)CC2)cc(OC)c1OC (stereo not drawn) [760 538]
mortality ([1]; 185 mg/kg i.v.): 10%
Diminution in consumption of O2: in time ([2]; 2.3 mg/kg i.v. slow perfusion): 15 min
Diminution in the cardiac effort (IK): in time ([2]; 2.3 mg/kg i.v. slow perfusion): 30 min
inhibition in vivo at 2.3 mg/kg [2, 5]: 48%
inhibition in vivo at 2.3 mg/kg [2, 6]: 37%

COc1cc(/C=C/C(=O)N2CCN(CC(O)COc3ccc(NC(C)=O)cc3)CC2)cc(OC)c1OC (stereo not drawn) [760 542]
mortality ([1]; 400 mg/kg i.v.): 0%
Diminution in consumption of O2: in time ([2]; 2.5 mg/kg i.v. slow perfusion): 45 min
Diminution in the cardiac effort (IK): in time ([2]; 2.5 mg/kg i.v. slow perfusion): 50 min
inhibition in vivo at 2.5 mg/kg [2, 3]: 64%
inhibition in vivo at 2.5 mg/kg [2, 4]: 32%
